Measured values taken from PubChem BioAssay (NCI).
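Results reflect a 48-hour exposure of cells in 96-well plates to compound at five concentrations. At the TGI there is no net growth.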 Where a SMILES comes first, the peptide text is derived from it. [ ]: non-standard residue; d: D form. pGlu = O=C1CC[CH](C(=O)O)N1

Assays:
Assay in all cases: NCI tumour cell line growth inhibition, 48 h
HCT-15 colon = system: HCT-15 colon
NCI-H226 lung = system: NCI-H226 lung
MOLT-4 leukemia = system: MOLT-4 leukemia
CAKI-1 renal = system: CAKI-1 renal
SF-268 CNS = system: SF-268 CNS
SF-539 CNS = system: SF-539 CNS
HS 578T breast = system: HS 578T breast
PC-3 prostate = system: PC-3 prostate
TK-10 renal = system: TK-10 renal
CCRF-CEM leukemia = system: CCRF-CEM leukemia
UACC-62 melanoma = system: UACC-62 melanoma
SNB-75 CNS = system: SNB-75 CNS

Structure (SMILES)	TGI (HCT-15 colon) [µM]	TGI (NCI-H226 lung) [µM]	TGI (MOLT-4 leukemia) [µM]	TGI (CAKI-1 renal) [µM]	TGI (SF-268 CNS) [µM]	TGI (SF-539 CNS) [µM]	TGI (HS 578T breast) [µM]	TGI (PC-3 prostate) [µM]	TGI (TK-10 renal) [µM]	TGI (CCRF-CEM leukemia) [µM]	TGI (UACC-62 melanoma) [µM]	TGI (SNB-75 CNS) [µM]
Fc1cc(C2=Nn3c(COc4ccccc4Cl)nnc3S/C2=C\c2ccc(Cl)cc2)c(Cl)cc1Cl	20.7	> 100	> 100	31.5	9.06	> 100	36.4	68.9	> 100	> 100	–	–
NC(=S)N1N=C2CCCCCC[C@@H]2[C@H]1c1ccccc1	> 100	> 100	> 100	> 100	> 100	> 100	–	–	> 100	> 100	> 100	> 100
CC(C)(C)C1=CC(=N/N=c2\scc(-c3ccccc3)n2-c2ccccc2)C=C(C(C)(C)C)C1=O	> 100	> 100	> 100	> 100	> 100	> 100	–	–	> 100	> 100	> 100	> 100
CC1CCN(C(C)C)P(=S)(Cc2ccccc2)O1 (centres undefined)	> 100	> 100	> 100	> 100	> 100	> 100	–	> 100	> 100	–	> 100	–
O=C(Cc1ccc2ccccc2c1)NCc1ccc(C(=O)NCCc2ccccc2)cc1	> 100	> 100	–	> 100	> 100	–	> 100	> 100	> 100	> 100	> 100	> 100
COc1ccc2[nH]cc(CCNC(=O)[C@H](Cc3ccc(O)cc3)NC(=O)[C@@H](NCC(F)(F)F)C(C)C)c2c1	> 100	> 100	> 100	–	–	> 100	91.1	> 100	> 100	> 100	> 100	–
O=C(OC1=CCN(Br)C1=O)C1=C(O)C(=O)N(Br)C1	> 100	> 100	87.7	> 100	67.3	–	> 100	> 100	> 100	> 100	36.3	61.3
CCOC(=O)C1(C(=O)OCC)C(C(C)(C)C)=C(C)c2ccccc21	28.7	28.5	> 100	–	39.1	32.8	–	–	72.4	40.9	26	61.8
O=C(Nc1ccccc1)N(CCN(Cc1ccccc1)C(=O)Nc1ccccc1)CCN(Nc1ccccc1)C(=O)Nc1ccccc1	> 100	> 100	> 100	> 100	> 100	–	> 100	> 100	> 100	> 100	> 100	> 100
CC(NC(=O)C1CCC(=O)N1)C(=O)N1CCCC1C(N)=O (stereo not drawn) ([pGlu]-Ala-Pro-NH2; configuration not given here)	> 100	> 100	> 100	> 100	> 100	–	> 100	> 100	> 100	> 100	> 100	> 100
CCOC(=O)c1c(N)sc2c1CC(C)CC2 (centres undefined)	> 100	64	> 100	> 100	> 100	–	> 100	> 100	> 100	–	> 100	98.1
COC(=O)C(Cc1c[nH]c2ccccc12)NC(=O)C(Cc1cnc[nH]1)NC(=O)C1CCC(=O)N1C(=O)OCc1ccccc1 (centres undefined)	–	> 100	> 100	–	–	–	> 100	> 100	> 100	> 100	> 100	> 100
O=c1onc2n1-c1ccc(Cl)cc1C(=S)N1CSCC21 (centres undefined)	95.3	83.1	> 100	> 100	69.7	–	53.9	> 100	> 100	> 100	> 100	91.9
Cc1nc(OCc2ccccc2)c2ncn(CCO)c2n1	–	> 100	> 100	> 100	> 100	> 100	> 100	> 100	> 100	> 100	> 100	–
O=[N+]([O-])c1ccc(-c2csc(N=Nc3c(O)[nH]c4ccccc34)n2)cc1	30.1	> 100	> 100	39.4	–	39.3	–	86.2	35.6	–	–	> 100
CC(C)(C)c1ccc2c(c1)OP1(Oc3c(Cl)cc(Cl)c4cccnc34)(O2)Oc2ccc(C(C)(C)C)cc2O1	19.9	29.1	18.7	9.58	24.7	21.2	–	–	–	> 100	21.1	32.2

Structure (SMILES)	TGI (HCT-15 colon) [µM]	TGI (NCI-H226 lung) [µM]	TGI (MOLT-4 leukemia) [µM]	TGI (CAKI-1 renal) [µM]	TGI (SF-268 CNS) [µM]	TGI (SF-539 CNS) [µM]	TGI (HS 578T breast) [µM]	TGI (PC-3 prostate) [µM]	TGI (TK-10 renal) [µM]	TGI (CCRF-CEM leukemia) [µM]	TGI (UACC-62 melanoma) [µM]	TGI (SNB-75 CNS) [µM]
S=P1(Sc2ccccc2)Oc2ccc3ccccc3c2-c2c(ccc3ccccc23)O1	> 100	> 100	> 100	> 100	> 100	> 100	–	–	–	> 100	> 100	> 100
O=C1CCCCCCC2=C1C(Sc1ccccc1)CC2 (centres undefined)	> 100	> 100	> 100	–	44	–	–	–	> 100	67.8	> 100	90.7
COc1ccc(C2SCC(=O)N2c2ccc(-n3c(-c4ccccc4)nc4ccccc4c3=O)cc2)cc1 (centres undefined)	> 100	> 100	> 100	> 100	> 100	> 100	–	> 100	> 100	> 100	> 100	79.3
CC(C)(C)OC(=O)NCC(CNC(=O)OC(C)(C)C)C(N)=O	> 100	> 100	> 100	> 100	> 100	> 100	> 100	> 100	> 100	> 100	> 100	–
COc1ccc(/C=N\N(C)Cc2cccc3ccsc23)cc1	> 100	> 100	> 100	> 100	> 100	–	> 100	> 100	> 100	> 100	> 100	> 100
CCOC(=O)C12CCC(=O)N1N(C)c1ncccc1N2 (centres undefined)	> 100	> 100	> 100	> 100	> 100	> 100	–	–	> 100	> 100	> 100	> 100
Cn1c(-c2ccc(C=O)o2)ccc1-c1ccc(C=O)o1	> 100	> 100	80.3	36.8	–	63.7	–	> 100	> 100	> 100	> 100	> 100
NCC(=O)Nc1ccccc1	> 100	> 100	> 100	> 100	> 100	–	> 100	> 100	> 100	–	> 100	> 100
CN1CCC2(CC1)SSC1(CCN(C)CC1)S2	> 100	–	> 100	–	–	> 100	> 100	> 100	–	> 100	> 100	> 100
O=C(O)c1nc2cc(Cl)ccc2[nH]c1=O	> 100	> 100	> 100	> 100	> 100	> 100	> 100	> 100	> 100	> 100	> 100	–
CO/C=C(/C(=O)OC)[C@@H]1C[C@@H]1c1ccc2ccccc2c1	49.9	> 100	65.4	66	99.2	44.2	> 100	> 100	> 100	63.1	> 100	–
CN(C)Cc1cc(Cl)c(O)c(CN(C)C)c1	> 100	> 100	–	> 100	> 100	–	> 100	> 100	> 100	> 100	> 100	> 100
COC(=O)C1=CO[C@@H](C)[C@@H]2Cn3ccc4c5ccccc5nc-4c3C[C@H]12	> 100	> 100	> 100	–	> 100	> 100	–	–	> 100	> 100	> 100	> 100
CC(=O)OCc1c(O)c2c([nH]c1=O)CCc1ccccc1-2	112	> 350	> 350	130	221	177	–	–	186	297	119	–
CCCCN(CC)C(=O)C(=O)Cc1nc2ccc(C(=O)c3ccccc3)cc2[nH]c1=O	> 100	> 100	> 31.6	> 100	> 100	> 100	–	–	> 100	> 31.6	> 100	> 88.1
COC(=O)C1CCC(=O)N1C(c1ccc(OC)cc1)c1cc(OC)c(OC)c(OC)c1 (centres undefined)	> 100	2.11	> 61.1	> 100	> 100	–	–	> 37.4	> 100	> 100	> 100	> 94.7
